Laboratory results taken from patent publication US9896445B2, “Heterocyclic inhibitors of ERK1 and ERK2 and their use in the treatment of cancer” (Asana Biosciences, LLC, priority 2015, dated 2018).

Key:
ERK2 = molecular target: T1, ERK2 (Homo sapiens, UniProt P28482); test: ERK2 HTRF (biochemical) assay
T1 construct: purchased Jubilant Biosys
How it was run: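 Compounds were tested as half-log dilutions from 0.0005 to 10 uM in Tris pH 7.5/MgCl2 buffer, with a substrate mix of 1 uM biotin-MBP peptide and 24 uM ATP and an enzyme mix of 25 nM ERK2. Reaction ran 60 min at room temperature. Phospho-MBP was detected by HTRF (Eu-anti-phospho-MBP/SA-APC, 665/620 nm), and IC50 was fitted with a variable-slope sigmoidal curve.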

ERK1 = molecular target: T2, ERK1 (Homo sapiens, UniProt P27361); test: ERK1 HTRF (biochemical) assay
T2 construct: purchased Jubilant Biosys
T2 sequence (P27361 whole entry): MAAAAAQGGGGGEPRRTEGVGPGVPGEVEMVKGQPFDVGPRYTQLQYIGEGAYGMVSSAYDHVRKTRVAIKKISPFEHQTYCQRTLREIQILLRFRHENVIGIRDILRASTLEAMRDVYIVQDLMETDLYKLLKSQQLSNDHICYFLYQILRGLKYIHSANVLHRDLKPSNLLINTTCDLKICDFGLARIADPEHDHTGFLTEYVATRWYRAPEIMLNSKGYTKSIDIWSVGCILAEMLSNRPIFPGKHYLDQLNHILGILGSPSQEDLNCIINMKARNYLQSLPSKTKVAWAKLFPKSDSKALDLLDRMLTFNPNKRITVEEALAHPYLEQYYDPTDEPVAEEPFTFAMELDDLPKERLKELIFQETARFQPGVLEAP
Protocol: ERK1 and ERK2 HTRF (Biochemical) Assays
These assays employed a homogeneous time resolved fluorescence (HTRF) technique. […] The plate was incubated at room temperature for 60 min with shaking. […] The IC50 values (half maximal inhibitory concentration values) were subsequently determined using a sigmoidal dose-response curve (variable slope) in GraphPad Prism® 5 software.

T1 sequence (P28482 whole entry): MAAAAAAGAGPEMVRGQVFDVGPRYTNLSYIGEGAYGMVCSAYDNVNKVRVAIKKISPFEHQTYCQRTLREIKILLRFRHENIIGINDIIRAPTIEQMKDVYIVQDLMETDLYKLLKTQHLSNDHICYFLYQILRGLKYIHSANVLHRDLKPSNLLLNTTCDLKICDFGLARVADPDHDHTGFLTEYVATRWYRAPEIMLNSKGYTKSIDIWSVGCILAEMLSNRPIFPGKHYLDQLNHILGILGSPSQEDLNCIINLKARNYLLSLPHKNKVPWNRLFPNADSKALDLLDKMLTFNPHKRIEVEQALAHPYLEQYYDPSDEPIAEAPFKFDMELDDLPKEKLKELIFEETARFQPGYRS

Structure (SMILES) | IC50 (ERK2; HTRF biochemical assay) | IC50 (ERK1; HTRF biochemical assay) | IC50 (ERK2; HTRF) | IC50 (ERK1; HTRF)
Cc1cnc(NC2CCOCC2)nc1-n1cnc(C(=O)N[C@H](CN(C)C)c2cccc(Cl)c2)c1 [Example 320, (S)-N-(1-(3-chlorophenyl)-2-(dimethylamino)-ethyl)-1-(5-methyl-2-((tetrahydro-2H-pyran-4-yl)amino)-pyrimidin-4-yl)-1H-imidazole-4-carboxamide] | ≤ 0.05 µM | < 0.05 µM |  | 
Cc1cnc(Nc2ccccc2Cl)nc1-n1cc(NC(=O)N[C@H](CO)c2cccc(Cl)c2)cn1 [Compound 2] |  |  | 0.05 to 0.1 µM | < 0.05 µM
Cc1cnc(NC2CCOCC2)nc1-n1cnc(C(=O)NCc2cccc(Cl)c2CN)c1 [Example 285, N-(2-(aminomethyl)-3-chlorobenzyl)-1-(5-methyl-2-((tetrahydro-2H-pyran-4-yl)amino)-pyrimidin-4-yl)-1H-imidazole-4-carboxamide] |  |  | ≤ 0.05 µM | < 0.05 µM
Cc1cnc(Nc2ccc(F)cc2Cl)nc1-n1cc(C(=O)NC(CN)c2ccccc2)cn1 (stereo not drawn) [Compound 54, N-(2-amino-1-phenylethyl)-1-(2-((2-chloro-4-fluoro-phenyl)amino)-5-methylpyrimidin-4-yl)-1H-pyrazole-4-carboxamide] |  |  | ≤ 0.05 µM | 0.05 to 0.1 µM
Cc1cnc(NC2CCN(C)CC2)nc1-n1cnc(C(=O)N[C@H](CO)c2cccc(Cl)c2)c1 [Example 296, (S)-N-(1-(3-chlorophenyl)-2-hydroxyethyl)-1-(5-methyl-2-((1-methylpiperidin-4-yl)amino)-pyrimidin-4-yl)-1H-imidazole-4-carboxamide] |  |  | ≤ 0.05 µM | < 0.05 µM
O=C(NC(CO)c1ccccc1)c1ccn(-c2ccnc(NC3CCOC3)c2)c1 (stereo not drawn) [Compound 189, N-(2-hydroxy-1-phenylethyl)-1-(2-((tetrahydrofuran-3-yl)amino)pyridin-4-yl)-1H-pyrrole-3-carboxamide] |  |  | 0.5 to 2.5 µM | 0.1 to 0.5 µM
Cc1cnc(Nc2ccc3c(c2)CCO3)nc1-n1ccc(C(=O)NC(CO)c2ccccc2)c1 (stereo not drawn) [Compound 138, 1-(2-((2,3-dihydro-benzofuran-5-yl)amino)-5-methylpyrimidin-4-yl)-N-(2-hydroxy-1-phenylethyl)-1H-pyrrole-3-carboxamide] |  |  | ≤ 0.05 µM | < 0.05 µM
Cc1cnc(Nc2ccc3c(c2)OCCO3)nc1-n1ccc(C(=O)NC(CO)c2cccc(Cl)c2)c1 (stereo not drawn) [Compound 139, N-(1-(3-chloro-phenyl)-2-hydroxyethyl)-1-(2-((2,3-dihydro-benzo[b][1,4]dioxin-6-yl)amino)-5-methylpyrimidin-4-yl)-1H-pyrrole-3-carboxamide] |  |  | ≤ 0.05 µM | < 0.05 µM
O=C(N[C@H](CO)c1cccc(Cl)c1)c1ccn(-c2nc(NC3CCOCC3)ncc2F)c1 [Compound 229, (S)-N-(1-(3-chlorophenyl)-2-hydroxyethyl)-1-(5-fluoro-2-((tetrahydro-2H-pyran-4-yl)amino)-pyrimidin-4-yl)-1H-pyrrole-3-carboxamide] |  |  | ≤ 0.05 µM | < 0.05 µM
Cc1cnc(N[C@H]2CCOC2)nc1-n1cnc(C(=O)NCc2cccc(C(F)(F)F)c2)c1 [Example 311, (S)-1-(5-methyl-2-((tetrahydrofuran-3-yl)amino)-pyrimidin-4-yl)-N-(3-(trifluoro-methyl)benzyl)-1H-imidazole-4-carboxamide] | ≤ 0.05 µM | 0.05 to 0.1 µM |  | 
Cc1cnc(NC2CC(F)(F)C2)nc1-n1cnc(C(=O)NC(CN)c2cc(F)cc(Cl)c2)c1 (stereo not drawn) [Example 278, N-(2-amino-1-(3-chloro-5-fluoro-phenyl)ethyl)-1-(2-((3,3-difluoro-cyclobutyl)amino)-5-methylpyrimidin-4-yl)-1H-imidazole-4-carboxamide] |  |  | ≤ 0.05 µM | < 0.05 µM
Cc1cnc(Nc2cccc(N3CCOCC3)c2)nc1-n1cnc(C(=O)N[C@H](CN)c2cccc(Cl)c2)c1 [Example 272, (S)-N-(2-amino-1-(3-chlorophenyl)ethyl)-1-(5-methyl-2-((3-morpholino-phenyl)amino)pyrimidin-4-yl)-1H-imidazole-4-carboxamide] |  |  | ≤ 0.05 µM | < 0.05 µM
Cc1cnc(Nc2ccccc2)cc1-n1cnc(C(=O)NC(CO)c2ccccc2)c1 (stereo not drawn) [Compound 89, N-(2-hydroxy-1-phenylethyl)-1-(5-methyl-2-(phenyl-amino)pyridin-4-yl)-1H-imidazole-4-carboxamide] |  |  | ≤ 0.05 µM | 0.1 to 0.5 µM

Now from value to compound:

IC50 (ERK2; HTRF biochemical assay) | IC50 (ERK1; HTRF biochemical assay) | IC50 (ERK2; HTRF) | IC50 (ERK1; HTRF) | Structure (SMILES)
 |  | ≤ 0.05 µM | < 0.05 µM | Cc1cnc(Nc2ccc3[nH]ncc3c2)nc1-n1ccc(C(=O)NC(CO)c2ccccc2)c1 (stereo not drawn) [Compound 140, 1-(2-((1H-indazol-5-yl)amino)-5-methylpyrimidin-4-yl)-N-(2-hydroxy-1-phenylethyl)-1H-pyrrole-3-carboxamide]
 |  | ≤ 0.05 µM | < 0.05 µM | Cc1cnc(Nc2ccc3c(c2)OCO3)nc1-n1cnc(C(=O)N[C@H](CN)c2cccc(Cl)c2)c1 [Example 266, (S)-N-(2-amino-1-(3-chlorophenyl)-ethyl)-1-(2-(benzo[d][1,3]dioxol-5-ylamino)-5-methylpyrimidin-4-yl)-1H-imidazole-4-carboxamide]
 |  | ≤ 0.05 µM | < 0.05 µM | Cc1cnc(Nc2ccc(F)cc2Cl)nc1-n1cc(C(=O)N[C@H](CO)c2cccc(Cl)c2)cn1 [Compound 35, (S)-1-(2-((2-chloro-4-fluoro-phenyl)amino)-5-methylpyrimidin-4-yl)-N-(1-(3-chloro-phenyl)-2-hydroxy-ethyl)-1H-pyrazole-4-carboxamide]
 |  | ≤ 0.05 µM | < 0.05 µM | Cc1cnc(Nc2cccnc2)cc1-n1ccc(C(=O)NC(CO)c2ccccc2)c1 (stereo not drawn) [Compound 81, N-(2-hydroxy-1-phenylethyl)-1-(5-methyl-2-(pyridin-3-ylamino)pyridin-4-yl)-1H-pyrrole-3-carboxamide]
 |  | ≤ 0.05 µM | < 0.05 µM | Cc1cnc(Nc2ccc3c(c2)OCO3)nc1-n1ccc(C(=O)NC(CO)c2ccccc2)c1 (stereo not drawn) [Compound 47, 1-(2-(benzo[d][1,3]dioxol-5-ylamino)-5-methylpyrimidin-4-yl)-N-(2-hydroxy-1-phenylethyl)-1H-pyrrole-3-carboxamide]
 |  | ≤ 0.05 µM | < 0.05 µM | COc1ccc(Nc2ncc(C)c(-n3ccc(C(=O)NC(CO)c4ccccc4)c3)n2)cc1OCCN1CCN(C)CC1 (stereo not drawn) [Compound 148, N-(2-hydroxy-1-phenylethyl)-1-(2-((4-methoxy-3-(2-(4-methylpiperazin-1-yl)ethoxy)-phenyl)amino)-5-methylpyrimidin-4-yl)-1H-pyrrole-3-carboxamide]
 |  | ≤ 0.05 µM | < 0.05 µM | Cc1cnc(Nc2ccc(C3CCNCC3)c(F)c2)nc1-n1ccc(C(=O)NC(CO)c2cccc(Cl)c2)c1 (stereo not drawn) [Compound 216, N-(1-(3-chlorophenyl)-2-hydroxyethyl)-1-(2-((3-fluoro-4-(piperidin-4-yl)phenyl)amino)-5-methylpyrimidin-4-yl)-1H-pyrrole-3-carboxamide]
 |  | ≤ 0.05 µM | < 0.05 µM | Cc1cnc(Nc2ccc3c(c2)OC(F)(F)O3)nc1-n1ccc(C(=O)N[C@H](CO)c2ccc(F)c(Cl)c2)c1 [Compound 69, (S)-N-(1-(3-chloro-4-fluorophenyl)-2-hydroxyethyl)-1-(2-((2,2-difluoro-benzo[d][1,3]dioxol-5-yl)amino)-5-methylpyrimidin-4-yl)-1H-pyrrole-3-carboxamide]
